Reference: patent publication US10716765B2, “Delivery of functional compounds” (Intercontinental Great Brands LLC, priority 2009, dated 2020)

What was measured:
[1] = versus linalool and thymol, FIG. 3; cited from earlier work
[2] = In vitro digestion model simulating stomach and small intestine conditions; type: in vitro ADME
Description: This example compares the release of the non-esterified functional ingredient to the esterified functional ingredient during a simulated gastrointestinal study using an in vitro digestion model.
In addition, the partition coefficients for the ester compounds are greater than the parent compounds. These factors indicate that the ester compounds have a greater affinity for the hydrophobic carrier and insoluble matrix material than the parent compounds. […] The reduced rate is most evident when comparing linalool and thymol release from FIG. 4 to linalyl acetate and thymyl acetate release from FIG. 5. This improvement in stability within the model stomach implies increased stability in other low pH systems, such as acidic beverages, and further illustrates the importance of the esters for successful microencapsulation and enteric release of the functional ingredients.
As evident in FIGS. 4 and 5, the gastric release rate was reduced, as well as the release rate from 0-24.5 h, representative of the residence time in the small intestine. FIGS. 6 and 7 show the release rates of two esters of linalool, linalyl acetate in FIG. 6 and linalyl butyrate in FIG. 7 within a digestion model simulating stomach and small intestine conditions and residence times. In addition, the levels of the parent compounds present in the digestion model over time were measured. […]

[3] = Evaluation of emulsifiers in oil-in-water emulsion of essential oil blend; type: physicochemical; settings: compared with other emulsifiers
Description: Various emulsifiers were combined with deionized water at 60 C to produce 2% solutions. The resulting solutions were combined with an essential oil blend composition (4% alpha-pinene, 30% para-cymene, 7% linalool, and 35% thymol and 24% soybean oil) in a 50:50 weight ratio with deionized water to create an oil-in-water emulsion. The emulsifiers evaluated were Glycosperse S-20 KFG (Lonza; Fairlawn, N.J.), Polyaldo 10-1-O KFG (Lonza; Fairlawn, N.J.), Aldosperse MS-20 KFG (Lonza; Fairlawn, N.J.), Polyaldo 10-2-P KFG (Lonza; Fairlawn, N.J.), Ryoto sugar ester (S-1570, Mitsubishi-Kagaku Food Corp.; Tokyo, Japan), Precept 8120 (Central Soya; Fort Wayne, Ind.) and sodium caseinate (Alanate-180, New Zealand Dairy Board; Wellington, New Zealand).

| Compound | partition coefficient compared with parent compounds [1] | solubility in water compared with parent compounds [1] | hydrolysis of the ester to linalool [2] | oil droplets within the emulsion ([3]; 2% emulsifier solution, 50:50 with essential oil blend) | emulsion stability ([3]; after 24 hours storage at room temperature) |
| --- | --- | --- | --- | --- | --- |
| C=CC(C)(CCC=C(C)C)OC(=O)CCC (stereo not shown) [linalyl butyrate] | greater | significantly lower | about 5% | – | – |
| C=CC(C)(CCC=C(C)C)OC(C)=O (stereo not shown) [linalyl acetate] | greater | significantly lower | about 33% | – | – |
| sucrose stearate [Example S-1570] | – | – | – | smallest and most uniformly dispersed oil droplets | greatest stability |
| CC(=O)Oc1cc(C)ccc1C(C)C [thymyl acetate] | greater | significantly lower | – | – | – |
